These cell lines were tested with Cc1ccc(C(=O)Nc2ccc(CN3CCN(C)CC3)c(C(F)(F)F)c2)cc1C#Cc1cnc2cccnn12 [Ponatinib] + Cc1cc(Nc2cc(N3CCN(C)CC3)nc(Sc3ccc(NC(=O)C4CC4)cc3)n2)n[nH]1 [Tozasertib] (partner 0.1 µM) (assay: relative viability (nuclei count vs DMSO), 5 days (fraction); higher = more cells survive). Conditions: first compound 0.002 µM.
Procedure, shortened: (§1)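 Relative viability equals treated-well nuclei counts divided by vehicle-well nuclei counts. Counts came from 4× images of lung cancer cell lines grown in 1536-well plates for 5 days after pin-tool dosing on the day after seeding. Dosing used one drug alone or a fixed anchor-drug dose plus five library-drug doses (not always all listed) in √10 steps, and values are medians of duplicate plates.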

Row | Cell Line | relative viability
1 | NCI-H2342 | 0.489
2 | NCI-H1623 | 0.429
3 | NCI-H838 | 0.275
4 | NCI-H1650 | 0.323
5 | NCI-H1993 | 0.639
6 | NCI-H2347 | 0.473
7 | PC-14 | 0.527
8 | LCLC-103H | 0.527
9 | NCI-H596 | 0.914
10 | NCI-H2126 | 0.868
11 | EMC-BAC-2 | 0.285
12 | NCI-H2085 | 0.722
13 | HCC-366 | 0.112
14 | NCI-H1666 | 0.707
15 | NCI-H647 | 0.318
16 | NCI-H2087 | 0.259
17 | NCI-H1648 | 0.464
18 | NCI-H1395 | 0.636
19 | H3255 | 0.606

Row | Cell Line | relative viability
20 | COR-L23 | 0.209
21 | COR-L 105 | 0.304
22 | LOU-NH91 | 0.65
23 | ChaGo-K-1 | 0.234
24 | NCI-H358 | 0.0953
25 | NCI-H3122 | 0.43
26 | HOP-62 | 0.303
27 | HCC-44 | 0.946
28 | NCI-H522 | 0.51
29 | SW 900 | 0.58
30 | NCI-H2009 | 0.713
31 | NCI-H520 | 0.45
32 | SW 1573 | 0.202
33 | NCI-H2228 | 0.225
34 | NCI-H2023 | 0.381
35 | SK-LU-1 | 0.349
36 | SK-MES-1 | 0.828
37 | NCI-H661 | 0.36

Same assay, conditions: first compound 0.006325 µM

Row | Cell Line | relative viability
38 | NCI-H2342 | 0.639
39 | NCI-H1623 | 0.426
40 | NCI-H838 | 0.271
41 | NCI-H1650 | 0.411
42 | NCI-H1993 | 0.635
43 | NCI-H2347 | 0.669
44 | PC-14 | 0.628
45 | LCLC-103H | 0.534
46 | NCI-H596 | 0.911
47 | NCI-H2126 | 0.836
48 | EMC-BAC-2 | 0.275
49 | NCI-H2085 | 0.849
50 | HCC-366 | 0.108
51 | NCI-H1666 | 0.627
52 | NCI-H647 | 0.224
53 | LK-2 | 0.174
54 | NCI-H2087 | 0.237
55 | NCI-H1648 | 0.361
56 | NCI-H1395 | 0.747

Row | Cell Line | relative viability
57 | H3255 | 0.638
58 | COR-L23 | 0.213
59 | COR-L 105 | 0.343
60 | LOU-NH91 | 0.668
61 | ChaGo-K-1 | 0.213
62 | NCI-H358 | 0.101
63 | NCI-H3122 | 0.421
64 | HOP-62 | 0.348
65 | HCC-44 | 0.882
66 | NCI-H522 | 0.543
67 | SW 900 | 0.51
68 | NCI-H2009 | 0.726
69 | NCI-H520 | 0.419
70 | SW 1573 | 0.16
71 | NCI-H2228 | 0.286
72 | NCI-H2023 | 0.336
73 | SK-LU-1 | 0.419
74 | SK-MES-1 | 0.909
75 | NCI-H661 | 0.345

Same assay, conditions: first compound 0.06325 µM

Row | Cell Line | relative viability
76 | NCI-H2342 | 0.403
77 | NCI-H1623 | 0.453
78 | NCI-H838 | 0.286
79 | NCI-H1650 | 0.348
80 | NCI-H1993 | 0.582
81 | NCI-H2347 | 0.417
82 | PC-14 | 0.609
83 | LCLC-103H | 0.522
84 | NCI-H596 | 0.734
85 | NCI-H2126 | 0.954
86 | EMC-BAC-2 | 0.277
87 | NCI-H2085 | 0.662
88 | HCC-366 | 0.0686
89 | NCI-H1666 | 0.669
90 | NCI-H647 | 0.288
91 | LK-2 | 0.188
92 | NCI-H2087 | 0.21
93 | NCI-H1648 | 0.577
94 | NCI-H1395 | 0.768

Row | Cell Line | relative viability
95 | H3255 | 0.561
96 | COR-L23 | 0.171
97 | COR-L 105 | 0.372
98 | LOU-NH91 | 0.71
99 | ChaGo-K-1 | 0.177
100 | NCI-H358 | 0.0969
101 | NCI-H3122 | 0.382
102 | HOP-62 | 0.317
103 | HCC-44 | 0.87
104 | NCI-H522 | 0.476
105 | SW 900 | 0.337
106 | NCI-H2009 | 0.848
107 | NCI-H520 | 0.397
108 | SW 1573 | 0.162
109 | NCI-H2228 | 0.161
110 | NCI-H2023 | 0.246
111 | SK-LU-1 | 0.321
112 | SK-MES-1 | 0.964
113 | NCI-H661 | 0.351

Same assay, conditions: first compound 0.2 µM

Row | Cell Line | relative viability
114 | NCI-H2342 | 0.591
115 | NCI-H1623 | 0.419
116 | NCI-H838 | 0.256
117 | NCI-H1650 | 0.304
118 | NCI-H1993 | 0.555
119 | NCI-H2347 | 0.51
120 | PC-14 | 0.472
121 | LCLC-103H | 0.404
122 | NCI-H596 | 0.743
123 | NCI-H2126 | 0.754
124 | EMC-BAC-2 | 0.239
125 | NCI-H2085 | 0.576
126 | HCC-366 | 0.0671
127 | NCI-H1666 | 0.548
128 | NCI-H647 | 0.259
129 | LK-2 | 0.209
130 | NCI-H2087 | 0.155
131 | NCI-H1648 | 0.283
132 | NCI-H1395 | 0.701

Row | Cell Line | relative viability
133 | H3255 | 0.459
134 | COR-L23 | 0.142
135 | COR-L 105 | 0.316
136 | LOU-NH91 | 0.595
137 | ChaGo-K-1 | 0.209
138 | NCI-H358 | 0.165
139 | NCI-H3122 | 0.359
140 | HOP-62 | 0.33
141 | HCC-44 | 0.595
142 | NCI-H522 | 0.455
143 | SW 900 | 0.38
144 | NCI-H2009 | 0.749
145 | NCI-H520 | 0.372
146 | SW 1573 | 0.176
147 | NCI-H2228 | 0.234
148 | NCI-H2023 | 0.194
149 | SK-LU-1 | 0.218
150 | SK-MES-1 | 0.842
151 | NCI-H661 | 0.368

What follows are cell lines tested with Cc1ccc(C(=O)Nc2ccc(CN3CCN(C)CC3)c(C(F)(F)F)c2)cc1C#Cc1cnc2cccnn12 [Ponatinib] + NC(=O)Nc1cc(-c2cccc(F)c2)sc1C(=O)N[C@H]1CCCNC1 [AZD7762] (partner 0.2 µM) in the same assay as above. Conditions: first compound 0.002 µM.
Procedure, shortened: as §1

Row | Cell Line | relative viability
152 | NCI-H2342 | 0.436
153 | NCI-H838 | 0.899
154 | NCI-H1703 | 0.118
155 | NCI-H1993 | 0.65

— the supplement of paper PMC10307832
